Common to all, as to test: MTT assay (viability; isobolographic analysis)
What all share (format): cell-based
A general note: Tetrazolium assays rely on reduction of a dye to a coloured formazan, in cell work by metabolically active cells.

The subject of experiment [1] is MKN-74 human GC cells. The conditions noted are these: MKN-74, 72 h incubation, mean ± SEM. The method, then: (§1) The human GC cells ACC-201, AGS, MKN-74 and NCI-N87 were placed in 96-well plates and allowed to adhere overnight. On the following day, the growth medium was removed, and the cells were treated with a series of tested MGN and DCT dilutions (2.0–75 and 0.0004–0.0404 µg/mL, respectively) for 72 h at 37 °C. […] Subsequently, a solution of MTT (5 mg/mL) was added to each well, and the cells were further incubated for 3 h at 37 °C. Tetrazolium salt was reduced to violet formazan derivatives via the succinate dehydrogenase of metabolically active cells. Insoluble formazan compounds formed inside the cells were extracted with a sodium dodecyl sulfate buffer (10% SDS in 0.01 N HCl) overnight to achieve a quantitative assessment of the amount produced. The absorbance of the samples was measured at 570 nm using Infinite M200 Pro microplate reader (Tecan, Männedorf, Switzerland). Cell viability was presented as a percentage relative to the untreated control cells.
(§2) Interactions between MGN and DCT analyzed after 72 h in four different GC cell lines (ACC-201, AGS, MKN-74 and NCI-N87) were characterized by means of an isobolographic analysis in the MTT assay. The percentage inhibition of cell viability accompanied by the specific concentrations of the tested substances (MGN and DCT) were transferred to the MS Excel spreadsheet, and the data were computed using the log–probit method. Next, the concentration–response effect graphs for the tested drugs (MGN and DCT) were drawn, and the IC50 values for every tested drug were calculated. The cooperative effect of two concentration–response lines was tested for the MGN and DCT combination, as previously described. The calculations of IC50 values (±SEM) were computed with formulas originally derived from the log–probit method and adapted to the in vitro conditions, as described earlier. The concentration–response lines for MGN and DCT were not parallel, and thus, the isobolographic additivity was illustrated graphically as an area bounded by two (upper and lower) lines of additivity. From the experimentally denoted IC50 values for MGN and DCT in the MTT assay, median additive inhibitory concentrations (IC50add) for the mixture (at the fixed ratio of 1:1 of MGN and DCT) in various cell lines (ACC-201, AGS, MKN-74 and NCI-N87) were calculated, as described previously. More information on isobolographic analysis can be found in the literature.

Experiment [2] relates to AGS human GC cells. Particulars: 72 h incubation, mean ± SEM. As for the experimental part: as §1, §2
Experiment [3] deals with NCI-N87 human GC cells. The conditions noted are these: NCI-N87, 72 h incubation, mean ± SEM. As for the experimental part: as §1, §2
Experiment [4] has as its system ACC-201 human GC cells. The conditions noted are these: ACC-201, 72 h incubation, mean ± SEM. As for the experimental part:
as §1, §2

The term IC50 denotes the point on the concentration scale where inhibition reaches its midpoint.

Regarding `CC(=O)O[C@@]12CO[C@@H]1C[C@H](O)[C@@]1(C)C(=O)[C@H](O)C3=C(C)[C@@H](OC(=O)[C@H](O)[C@@H](NC(=O)OC(C)(C)C)c4ccccc4)C[C@@](O)([C@@H](OC(=O)c4ccccc4)[C@H]21)C3(C)C` [DCT, docetaxel], the IC50 in experiment [1] was 4.9 ± 2.1 ng/mL; in experiment [2] it was 2.6 ± 1.2 ng/mL; in experiment [3], 9 ± 2.9 ng/mL; in experiment [4], 2.8 ± 0.9 ng/mL.

The values are drawn from paper PMC10647589, “Heterogeneous Cellular Response of Primary and Metastatic Human Gastric Adenocarcinoma Cell Lines to Magnoflorine and Its Additive Interaction with Docetaxel” (International Journal of Molecular Sciences, 2023).
